The record followed here is BindingDB's records for doi:10.1016/j.bmcl.2004.04.008 (Fudan University, 2004).

SMILES strings stand for the structures.

As usually defined, the IC50 is the concentration needed to halve the response being measured. A higher IC50 goes with lower potency.

The nature of experiment [1]: Inhibitory concentration against SO561945 (HIV 1 mutant RT) viral infection of MT-4 cells.
Assay in experiment [2]: as above
The source holds these as a separate data set.

Experiment [3] is described as follows: Concentration required to protect the cell against HIV-1 strain IIIB viral cytopathogenicity by 50% in MT-4 cells. In general terms: Protection from cytopathic effect is a common read-out in antiviral testing.

`CCc1c(Cc2cccc3ccccc23)nc(SCC(=O)OC)[nH]c1=O` came in with an IC50 in experiment [1] of 4720 nM.

The compound `Cc1c(Cc2cccc3ccccc23)nc(SCC(=O)c2ccc(F)cc2)[nH]c1=O` returned an IC50 in experiment [1] of 180 nM. Compared with the last compound, the IC50 is about 26-fold lower.

Regarding `CCc1c(Cc2cccc3ccccc23)nc(SCC(=O)c2ccc(Cl)cc2)[nH]c1=O`, the IC50 in experiment [2] is > 56000 nM; in experiment [3], 260 nM.

For the compound `CC(=O)CSc1nc(Cc2cccc3ccccc23)c(C(C)C)c(=O)[nH]1`, the IC50 is > 43100 nM in experiment [2] and 410 nM in experiment [3].

Regarding `COc1ccc(C(=O)CSc2nc(Cc3cccc4ccccc34)c(C(C)C)c(=O)[nH]2)cc1`, the IC50 was 5820 nM in experiment [2] and 30 nM in experiment [3].

Turning to `CCc1c(Cc2cccc3ccccc23)nc(SCC(=O)c2ccc(C)cc2)[nH]c1=O`, half-maximal inhibition in experiment [1] (IC50) was put at 320 nM.

Regarding `CCOC(=O)CSc1nc(Cc2cccc3ccccc23)c(C)c(=O)[nH]1`, the IC50 in experiment [1] was found to be 7000 nM. This IC50 is about 22-fold higher than that of the compound before.

As to `CC(C)c1c(Cc2cccc3ccccc23)nc(SCC(=O)c2ccccc2)[nH]c1=O`, the IC50 stood at 19600 nM in experiment [2] and 46 nM in experiment [3].

For `O=c1[nH]cnc2c1ncn2[C@H]1CC[C@@H](CO)O1` [BMY-40900], the values for the IC50 in experiment [2] and in experiment [3] were 7150 nM and 5370 nM, respectively.

As to `CCc1c(Cc2cccc3ccccc23)nc(SCC(=O)c2ccc(OC)cc2)[nH]c1=O`, the IC50 in experiment [1] is 45 nM; in experiment [2], > 178000 nM.

As to `CC(C)c1c(Cc2cccc3ccccc23)nc(SCC(=O)c2ccc(F)cc2)[nH]c1=O`, the values for the IC50 in experiment [2] and in experiment [3] were 188000 nM and 78 nM, respectively.

The compound `COc1ccc(C(=O)CSc2nc(Cc3cccc4ccccc34)c(C)c(=O)[nH]2)cc1` returned an IC50 in experiment [1] of 370 nM. This lies in the sub-micromolar range.

`Cc1ccc(C(=O)CSc2nc(Cc3cccc4ccccc34)c(C)c(=O)[nH]2)cc1` had an IC50 in experiment [1] of 670 nM.

On to `Cc1ccc(C(=O)CSc2nc(Cc3cccc4ccccc34)c(C(C)C)c(=O)[nH]2)cc1`, for which, in experiment [1], the IC50 was determined as 240 nM.

Turning to `CC(C)c1c(Cc2cccc3ccccc23)nc(SCC(=O)c2ccc(Cl)cc2)[nH]c1=O`, the IC50 is > 270000 nM in experiment [1] and 320 nM in experiment [3].

For the compound `COC(=O)CSc1nc(Cc2cccc3ccccc23)c(C)c(=O)[nH]1`, in experiment [1], the IC50 is 6990 nM.

Regarding `Cc1c(Cc2cccc3ccccc23)nc(SCC(=O)c2ccc(Cl)cc2)[nH]c1=O`, in experiment [1], it took 550 nM to reach half-maximal inhibition (IC50).

In the case of `CCOC(=O)CSc1nc(Cc2cccc3ccccc23)c(C(C)C)c(=O)[nH]1`, the figures for the IC50 in experiment [1] and in experiment [2] were 1410 nM and > 175000 nM, respectively.

The compound `CC(=O)CSc1nc(Cc2cccc3ccccc23)c(C)c(=O)[nH]1` came in with an IC50 in experiment [1] of 1120 nM. In other words, the single-digit micromolar range.

`Cc1ccc(C(=O)CSc2nc(Cc3cccc4ccccc34)c(C(C)C)c(=O)[nH]2)c(C)c1`: the IC50 amounted to 240 nM in experiment [1] and 2670 nM in experiment [2].

Take `CCc1c(Cc2cccc3ccccc23)nc(SCC(=O)c2ccc(F)cc2)[nH]c1=O`: the IC50 came out at 24200 nM in experiment [2] and 78 nM in experiment [3].

On to `COC(=O)CSc1nc(Cc2cccc3ccccc23)c(C(C)C)c(=O)[nH]1`, for which the IC50 in experiment [2] is > 179000 nM; in experiment [3] it was 4490 nM.

As to `Cc1c(Sc2ccccc2)n(COCCO)c(=O)[nH]c1=O`, the IC50 in experiment [2] is > 405000 nM; in experiment [3], 5060 nM.
